Test results taken from ChEMBL document CHEMBL5104153, “De novo design of type II topoisomerase inhibitors as potential antimicrobial agents targeting a novel binding region” (RSC Med Chem, 2022).

Legend:
[1] = Inhibition of Escherichia coli topoisomerase 4 assessed as relaxation of supercoiled plasmid pBR322 DNA and measured after 30 mins
DNA gyrase = DNA gyrase (Escherichia coli, UniProt P0AES4+P0AES6); experiment: Inhibition of Escherichia coli DNA gyrase supercoiling activity using pBR322 as substrate incubated for 30 mins measured by gel-based assay; format: protein-complex assay
Escherichia coli = experiment: Antibacterial activity against Escherichia coli measured by broth microdilution assay
Staphylococcus aureus = experiment: Antibacterial activity against Staphylococcus aureus measured by broth microdilution assay

| IC50 [1] [µM] | SMILES | IC50 (DNA gyrase) [µM] | MIC (Escherichia coli) [µg/mL] | MIC (Staphylococcus aureus) [µg/mL] |
| --- | --- | --- | --- | --- |
| > 100 | CCOc1cccc(-c2cccc(C(=O)N[C@@H](CN)c3ccccc3)c2)c1F |  |  |  |
| > 100 | NC[C@H](NC(=O)c1cccc(-c2ccccc2C(F)(F)F)c1)c1ccccc1 |  |  |  |
| > 100 | COc1ccccc1-c1cccc(C(=O)NC(CN)c2cccc(O)c2)c1 (configuration not stated) |  |  |  |

| SMILES | IC50 [1] [µM] | IC50 (DNA gyrase) [µM] | MIC (Escherichia coli) [µg/mL] | MIC (Staphylococcus aureus) [µg/mL] |
| --- | --- | --- | --- | --- |
| Cl.NCC(NC(=O)c1cccc(-c2cccs2)c1)c1ccc(O)cc1 (configuration not stated) | > 540 | 0.3 | 8 | 8 |
